Values quoted from earlier work as cited in patent publication US9271959B2, “Bicyclic tetrahydropyrrole compounds” (Laboratorios del Dr. Esteve, S.A., priority 2006, dated 2016).

Legend:
sigma 1 (σ-1) site = sigma 1 (σ-1) site (Homo sapiens, UniProt Q99720)
sigma (σ-2) site = sigma (σ-2) site (Homo sapiens, UniProt Q5BJF2)
sigma (σ-2) site, sequence (Q5BJF2 whole entry): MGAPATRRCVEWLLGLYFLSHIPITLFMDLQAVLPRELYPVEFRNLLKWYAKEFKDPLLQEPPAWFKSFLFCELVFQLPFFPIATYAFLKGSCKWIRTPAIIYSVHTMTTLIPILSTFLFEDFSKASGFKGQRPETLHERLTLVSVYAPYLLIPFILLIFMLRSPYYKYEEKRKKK

sigma 1 (σ-1) site, sequence (Q99720 whole entry): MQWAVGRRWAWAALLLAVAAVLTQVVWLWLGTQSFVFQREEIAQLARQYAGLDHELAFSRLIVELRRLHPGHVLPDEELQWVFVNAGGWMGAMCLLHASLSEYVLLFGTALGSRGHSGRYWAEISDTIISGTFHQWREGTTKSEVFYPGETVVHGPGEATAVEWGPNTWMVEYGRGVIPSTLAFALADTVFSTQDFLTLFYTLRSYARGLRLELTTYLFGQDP

SKF 10047
affinity for the sigma 1 (σ-1) site (sigma 1 (σ-1) site): nanomolar affinity | affinity for the sigma (σ-2) site (sigma (σ-2) site): micromolar affinity
